According to US20220388962A1 (Biohaven Therapeutics Ltd., priority 2019, published 2022):
Counter-ions that a name gives are not always drawn.

Molecular target: TDP-43 (Homo sapiens, UniProt Q13148)
Assay: TDP-43-DNA alpha-screen assay (bt-TAR-32 displacement)
Assay type: binding
Details: bt-TAR-32 0.125 nM, 15 ng/ml TDP-43
Description: Alpha-screen assay: Displacement of bt-TG6 binding was measured using AlphaScreen technology as previously described (Cassel, J. A. et al., Journal of Biomolecular Screening, 2010, 15, 1099-1106; Cassel, J. A.; Reitz, A. B. et al. The effects of small molecule inhibitors of nucleic acid binding to TDP-43 on TDP-43 metabolism and function. Biochimie, 2012, 94, 1974-1981).
Test compounds were diluted in assay buffer (25 mM Tris [pH 7.4], 0.1% bovine serum albumin [BSA], 0.1% Triton X-100) at 4× the desired final concentration. Dilutions of test compound (50 to 0.02 μM in half-log dilutions with a no compound control well) were pre-incubated with TDP-43 (5 μl of 60 ng/mL) pre-bound to AlphaScreen® anti-GST acceptor beads (5 μl of 40 μg/mL) in 15 μl volume for 30 minutes at 23° C. with shaking. Assays were initiated by the addition of 5 μl bt-TAR-32 (5′-CTGCTTTTTGCCTGTACTGGGTCTCTGTGGTT-3′) 0.5 nM pre-bound to AlphaScreen® strepavidin donor beads (40 μg/mL). After incubation in the dark at 23° C. for 90 minutes with shaking, the AlphaScreen® signal was measured on a Synergy 2 plate reader (BioTek, Winooski, Vt.). IC50 values were determined from nonlinear regression fits of the data to a Sigmoidal dose response variable slope model in GraphPad Prism. Final assay conditions are 25 mM Tris [pH 7.4], 0.1% bovine serum albumin [BSA], 0.100 Triton X-100, 15 ng/ml TDP-43, 0.125 nM bTAR32, 10 ug/ml […].

TDP-43, sequence (Q13148 whole entry): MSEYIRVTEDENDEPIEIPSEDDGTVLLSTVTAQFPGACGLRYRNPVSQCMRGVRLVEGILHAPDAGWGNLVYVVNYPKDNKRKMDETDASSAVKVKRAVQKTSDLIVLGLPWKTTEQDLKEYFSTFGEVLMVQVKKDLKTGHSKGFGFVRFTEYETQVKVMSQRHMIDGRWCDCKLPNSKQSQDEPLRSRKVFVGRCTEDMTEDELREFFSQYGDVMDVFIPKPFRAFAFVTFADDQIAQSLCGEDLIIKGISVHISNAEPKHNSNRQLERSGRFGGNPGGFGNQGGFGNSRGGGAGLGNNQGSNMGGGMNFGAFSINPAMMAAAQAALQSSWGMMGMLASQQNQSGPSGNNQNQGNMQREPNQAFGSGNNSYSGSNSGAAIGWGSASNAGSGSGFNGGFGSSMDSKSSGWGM

IC50 [nM]	Compound
1160	COc1ccc(-c2cc(NCCCNCC3CCN(C(=O)OC(C)(C)C)CC3)c3ccccc3n2)cc1 [Example 62, tert-Butyl 4-{[(3-{[2-(4-methoxyphenyl)quinolin-4-yl]amino}propyl)amino]methyl}piperidine-1-carboxylate]
230	COc1ccc(-c2cc(N[C@H]3CC[C@@H](N)CC3)c3cc(OC)c(OC)cc3n2)cc1 [Example 105]
80	NC1CCC(Nc2cc(-c3ccc(N4CCNCC4)cc3)nc3ccccc23)CC1 (stereo not shown) [Example 90]
2900	COc1ccc(-c2cc(NCCCN(C)C)c3c(F)cccc3n2)cc1 [Example 133]
150	COc1ccc(-c2cc(NCCCN3CC4CCNCC4C3)c3ccccc3n2)cc1 (stereo not shown) [Example 36, N-(3-(Hexahydro-1H-pyrrolo[3,4-c]pyridin-2(3H)-yl)propyl)-2-(4-methoxyphenyl)quinolin-4-amine dihydrochloride]
45600	Cc1cc(NCCCN(C)C)c2ccccc2n1 [Example 137]
110	NCCCNc1cc(-c2ccc(C3CCNCC3)cc2)nc2ccccc12 [Example 95]
79400	COc1ccc2nc(C(F)(F)F)cc(NCCCN(C)C)c2c1 [Example 143]
210	COc1ccc(-c2cc(NCCCN3CC4CCC(N)C4C3)c3ccccc3n2)cc1 (stereo not shown) [Example 34, N-(3-(4-Aminohexahydrocyclopenta[c]pyrrol-2(1H)-yl)propyl)-2-(4-methoxyphenyl)quinolin-4-amine trihydrochloride]
570	NCCCNc1cc(-c2ccc3ncccc3c2)nc2ccccc12 [Example 113]
310	CN(C)CCCNc1cc(-c2ccc(N3CCN(C)CC3)cc2)nc2ccccc12 [Example 110]
130	COc1ccc(-c2cc(NCCCN(CCCN(C)C)CC3CNC3)c3ccccc3n2)cc1 [Example 20, N^1-(Azetidin-3-ylmethyl)-N^1-(3-((2-(4-methoxyphenyl)quinolin-4-yl)amino)propyl)-N^3,N^3-dimethylpropane-1,3-diamine]
50	COc1cc2nc(-c3ccc(N4CCNCC4)cc3)cc(NCCCN(C)C)c2cc1OC [Example 87, N-(3-(dimethylamino)propyl)-6,7-dimethoxy-2-(4-(piperazin-1-yl)phenyl)quinolin-4-amine]
470	COc1ccc(-c2cc(NC3CCN(C4CCN(C)CC4)CC3)c3ccccc3n2)cc1 [Example 69, 2-(4-Methoxyphenyl)-N-(1′-methyl-[1,4′-bipiperidine]-4-yl)quinolin-4-amine]
90	CC(C)C(N)C(=O)N1CCN(c2ccc(-c3cc(NCCCN(C)C)c4ccccc4n3)cc2)CC1 (stereo not shown) [Example 91, 2-amino-1-(4-(4-(4-((3-(dimethylamino)propyl)amino)quinolin-2-yl)phenyl)piperazin-1-yl)-3-methylbutan-1-one]
360	COc1ccc(-c2cc(NCCCN3CCN(CCCN)CC3)c3ccccc3n2)cc1 [Example 46, N-(3-(4-(3-Aminopropyl)piperazin-1-yl)propyl)-2-(4-methoxyphenyl)quinolin-4-amine hydrochloride]
100	COc1ccc(-c2cc(NCCCNCC3CCN(CC4CC4)CC3)c3ccccc3n2)cc1 [Example 71, N^1-((1-(Cyclopropylmethyl)piperidin-4-yl)methyl)-N^3-(2-(4-methoxyphenyl)quinolin-4-yl)propane-1,3-diamine trihydrochloride]

IC50 [nM]	Compound
240	COc1ccc(-c2cc(NCCCN(C)CCCN3CCCCC3)c3ccccc3n2)cc1 [Example 5, N^1-(2-(4-methoxyphenyl)quinolin-4-yl)-N^3-methyl-N^3-(3-(piperidin-1-yl)propyl)propane-1,3-diamine trihydrochloride]
180	COc1ccc(-c2cc(NCCCN(CCCN(C)C)CC3CC3)c3ccccc3n2)cc1 [Example 17, N^1-(Cyclopropylmethyl)-N^1-(3-((2-(4-methoxyphenyl)quinolin-4-yl)amino)propyl)-N^3,N^3-dimethylpropane-1,3-diamine]
1350	COc1ccc(-c2cc(NC3CCC(NCCCNC(=O)OC(C)(C)C)CC3)c3ccccc3n2)cc1 (stereo not shown) [Example 61, tert-Butyl(3-((4-((2-(4-methoxyphenyl)quinolin-4-yl)amino)cyclohexyl)amino)propyl)carbamate]
2720	COc1ccc(-c2cc(NCCCN(C)C)c3ccccc3n2)cc1 [Example 132]
6510	COc1ccc(-c2cc(NCCCN(C)C)c3ccccc3n2)cn1 [Example 139]
2670	COc1ccc(-c2cc(NCCCN3CC4CCN(C(=O)OC(C)(C)C)CC4C3)c3ccccc3n2)cc1 (stereo not shown) [Example 35, tert-Butyl 2-(3-((2-(4-methoxyphenyl)quinolin-4-yl)amino)propyl) hexahydro-1H-pyrrolo[3,4-c]pyridine-5(6H)-carboxylate]
1260	COc1ccc(-c2cc(NCCCN(C)CCCNS(=O)(=O)c3cccc4c(N(C)C)cccc34)c3ccccc3n2)cc1 [Example 78, 5-(dimethylamino)-N-{3-[(3-{[2-(4-methoxyphenyl)quinolin-4 yl]amino}propyl)(methyl)amino]propyl}naphthalene-1-sulfonamide]
180	COc1ccc(-c2cc(NCCCNC3CCC4CNCC43)c3ccccc3n2)cc1 (stereo not shown) [Example 33, N^1-(2-(4-Methoxyphenyl)quinolin-4-yl)-N^3-(octahydrocyclopenta[c]pyrrol-4-yl)propane-1,3-diamine dihydrochloride]
840	COc1cc2nccc(NCCCN(C)CCCN)c2cc1OC [Example 147, N^1-(3-aminopropyl)-N^3-(6,7-dimethoxyquinolin-4-yl)-N^1-methylpropane-1,3-diamine]
290	COc1ccc(-c2cc(NCCC3CCCCN3CCCN3C(=O)c4ccccc4C3=O)c3ccccc3n2)cc1 (stereo not shown) [Example 67, 2-(3-(2-(2-((2-(4-Methoxyphenyl)quinolin-4-yl)amino)ethyl)piperidin-1-yl)propyl) isoindoline-1,3-dione]
590	COc1ccc(-c2cc(NCCCN3CCC(O)CC3)c3ccccc3n2)cc1 [Example 75, 1-(3-((2-(4-Methoxyphenyl)quinolin-4-yl)amino)propyl)piperidin-4-ol]
930	COc1ccc(-c2cc(NCCCN3CCC(C(N)=O)CC3)c3ccccc3n2)cc1 [Example 72, 1-(3-((2-(4-Methoxyphenyl)quinolin-4-yl)amino)propyl)piperidine-4-carboxamide dihydrochloride]
65300	COc1ccc(-c2cc(NCCC(=O)OC(C)(C)C)c3ccccc3n2)cc1 [Example 142]
6560	COc1ccc(-c2cc(NCCCN(C)C)c3cc4c(cc3n2)OC(F)(F)O4)cc1 [Example 140]
120	COc1ccc(-c2cc(NCCCN(CCCN(C)C)CC3CCNCC3)c3ccccc3n2)cc1 [Example 21, N^1-(3-((2-(4-Methoxyphenyl)quinolin-4-yl)amino)propyl)-N^3,N^3-dimethyl-N^1-(piperidin-4-ylmethyl)propane-1,3-diamine]
1470	COc1ccc(-c2cc(NCCCN3CCC4(C3)CN(C(=O)OC(C)(C)C)C4)c3ccccc3n2)cc1 [Example 41, tert-Butyl 6-(3-((2-(4-methoxyphenyl)quinolin-4-yl)amino)propyl)-2,6-diaza spiro[3.4]octane-2-carboxylate]
20	COc1cc2nc(-c3ccc(N4CCNCC4)cc3)cc(N[C@H]3C[C@@H](N)C3)c2cc1OC [Example 79]
